Experimental data published in PubChem BioAssay (NCI).
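Briefly, cells in 96-well plates were exposed to five compound concentrations for 48 h, and endpoints were estimated by linear interpolation. TGI: total growth inhibition.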

Legend:
Assay in all cases: growth of human tumour cells (NCI), 48 h
[1] = system: 786-0 renal
[2] = system: A498 renal
[3] = system: A549 NSCLC
[4] = system: ACHN renal
[5] = system: BT-549 breast
[6] = system: CAKI-1 renal
[7] = system: CCRF-CEM leukemia
[8] = system: COLO 205 colon
[9] = system: DU-145 prostate
[10] = system: EKVX NSCLC
[11] = system: HCC-2998 colon
[12] = system: HCT-116 colon
[13] = system: HCT-15 colon
[14] = system: HL-60(TB) leukemia
[15] = system: HOP-62 NSCLC
[16] = system: HOP-92 NSCLC
[17] = system: HS 578T breast
[18] = system: HT29 colon
[19] = system: IGROV1 ovarian
[20] = system: K-562 leukemia
[21] = system: KM12 colon
[22] = system: LOX IMVI melanoma
[23] = system: M14 melanoma
[24] = system: MALME-3M melanoma
[25] = system: MCF7 breast
[26] = system: MDA-MB-231 breast
[27] = system: MDA-MB-435
[28] = system: MDA-N
[29] = system: MOLT-4 leukemia
[30] = system: NCI-H226 lung
[31] = system: NCI-H23 lung
[32] = system: NCI-H460 lung
[33] = system: NCI-H522 lung
[34] = system: NCI/ADR-RES ovarian
[35] = system: OVCAR-3 ovarian
[36] = system: OVCAR-4 ovarian
[37] = system: OVCAR-5 ovarian
[38] = system: OVCAR-8 ovarian
[39] = system: PC-3 prostate
[40] = system: RXF 393 renal
[41] = system: SF-268 CNS
[42] = system: SF-295 CNS
[43] = system: SF-539 CNS
[44] = system: SK-MEL-2 melanoma
[45] = system: SK-MEL-28 melanoma
[46] = system: SK-MEL-5 melanoma
[47] = system: SK-OV-3 ovarian
[48] = system: SN12C renal
[49] = system: SNB-19 CNS
[50] = system: SNB-75 CNS
[51] = system: SR leukemia
[52] = system: SW-620 colon
[53] = system: T-47D breast
[54] = system: TK-10 renal
[55] = system: U251 CNS
[56] = system: UACC-257 melanoma
[57] = system: UACC-62 melanoma
[58] = system: UO-31 renal
[59] = system: RPMI-8226 leukemia

For `O=C1c2ccccc2S(=O)(=O)c2cc(-c3nn[nH]n3)ccc21`, the TGI [1] was over 100 µM, the TGI [2] was over 100 µM and the TGI [3] was over 100 µM. For the same compound, the TGI [4] was over 100 µM, the TGI [5] was over 100 µM and the TGI [6] was over 100 µM. It also gave a TGI [7] of over 100 µM, a TGI [8] of over 100 µM and a TGI [9] of over 100 µM. The TGI [10] was over 100 µM, the TGI [11] was over 100 µM and the TGI [12] was over 100 µM. For the same compound, the TGI [13] was over 100 µM, the TGI [14] was over 100 µM and the TGI [15] was over 100 µM. For the same compound, the TGI [16] was over 100 µM, the TGI [17] was over 100 µM and the TGI [18] was over 100 µM. For the same compound, the TGI [19] was over 100 µM, the TGI [20] was over 100 µM and the TGI [21] was over 100 µM. The TGI [22] was over 100 µM, the TGI [23] was over 100 µM and the TGI [24] was over 100 µM. It also gave a TGI [25] of over 100 µM, a TGI [26] of over 100 µM and a TGI [27] of over 100 µM. It also gave a TGI [28] of over 100 µM, a TGI [29] of over 100 µM and a TGI [30] of over 100 µM. It also gave a TGI [31] of over 100 µM, a TGI [32] of over 100 µM and a TGI [33] of over 100 µM. It also gave a TGI [34] of over 100 µM, a TGI [35] of over 100 µM and a TGI [36] of over 100 µM. It also gave a TGI [37] of over 100 µM, a TGI [38] of over 100 µM and a TGI [39] of over 100 µM. For the same compound, the TGI [40] was over 100 µM, the TGI [41] was over 100 µM and the TGI [42] was over 100 µM. It also gave a TGI [43] of over 100 µM, a TGI [44] of over 100 µM and a TGI [45] of over 100 µM. It also gave a TGI [46] of over 100 µM, a TGI [47] of over 100 µM and a TGI [48] of over 100 µM. It also gave a TGI [49] of over 100 µM, a TGI [50] of over 100 µM and a TGI [51] of over 100 µM. It also gave a TGI [52] of over 100 µM, a TGI [53] of over 100 µM and a TGI [54] of over 100 µM. The TGI [55] was over 100 µM, the TGI [56] was over 100 µM and the TGI [57] was over 100 µM. The TGI [58] was over 100 µM.
`CC(=O)OCc1ccc2oc(=O)c(C(=O)Oc3ccccc3)cc2c1` gave a TGI [1] of 45.8 µM, a TGI [2] of over 100 µM and a TGI [3] of over 100 µM. The TGI [4] was over 100 µM, the TGI [5] was over 100 µM and the TGI [6] was 38.5 µM. It also gave a TGI [7] of over 100 µM, a TGI [8] of over 100 µM and a TGI [9] of over 100 µM. It also gave a TGI [10] of over 100 µM, a TGI [11] of over 100 µM and a TGI [12] of 30.6 µM. It also gave a TGI [13] of 50 µM, a TGI [14] of over 100 µM and a TGI [15] of over 100 µM. The TGI [16] was 40.2 µM, the TGI [17] was over 100 µM and the TGI [18] was over 100 µM. It also gave a TGI [19] of over 100 µM, a TGI [20] of 30 µM and a TGI [21] of over 100 µM. It also gave a TGI [22] of over 100 µM, a TGI [23] of over 100 µM and a TGI [24] of over 100 µM. It also gave a TGI [25] of over 100 µM, a TGI [26] of 84.2 µM and a TGI [27] of over 100 µM. The TGI [28] was over 100 µM, the TGI [29] was over 100 µM and the TGI [30] was over 100 µM. It also gave a TGI [31] of over 100 µM, a TGI [32] of over 100 µM and a TGI [33] of over 100 µM. The TGI [34] was over 100 µM, the TGI [35] was over 100 µM and the TGI [36] was over 100 µM. The TGI [37] was over 100 µM, the TGI [38] was over 100 µM and the TGI [39] was 34.5 µM. It also gave a TGI [59] of over 100 µM, a TGI [40] of over 100 µM and a TGI [41] of over 100 µM. It also gave a TGI [42] of over 100 µM, a TGI [43] of over 100 µM and a TGI [44] of over 100 µM. For the same compound, the TGI [45] was over 100 µM, the TGI [46] was over 100 µM and the TGI [47] was over 100 µM. For the same compound, the TGI [48] was 99.2 µM, the TGI [49] was over 100 µM and the TGI [50] was over 100 µM. It also gave a TGI [51] of over 100 µM, a TGI [52] of over 100 µM and a TGI [53] of 37.3 µM. For the same compound, the TGI [54] was 62.8 µM, the TGI [55] was over 100 µM and the TGI [56] was over 100 µM. For the same compound, the TGI [57] was 38.6 µM and the TGI [58] was over 100 µM.
`NC(N)=Nc1ccc(CC(N)C(=O)O)cc1` (stereo not drawn) was tested, and the TGI [1] was over 12.5 µM, the TGI [2] was over 12.5 µM and the TGI [3] was over 12.5 µM. It also gave a TGI [4] of over 12.5 µM, a TGI [5] of over 12.5 µM and a TGI [6] of over 12.5 µM. For the same compound, the TGI [7] was over 12.5 µM, the TGI [8] was over 12.5 µM and the TGI [9] was over 12.5 µM. For the same compound, the TGI [10] was over 12.5 µM, the TGI [11] was over 12.5 µM and the TGI [12] was over 12.5 µM. It also gave a TGI [13] of over 12.5 µM, a TGI [14] of over 12.5 µM and a TGI [15] of over 12.5 µM. It also gave a TGI [16] of over 12.5 µM, a TGI [17] of over 12.5 µM and a TGI [18] of over 12.5 µM. The TGI [19] was over 12.5 µM, the TGI [20] was over 12.5 µM and the TGI [21] was over 12.5 µM. It also gave a TGI [22] of over 12.5 µM, a TGI [23] of over 12.5 µM and a TGI [24] of over 12.5 µM. The TGI [25] was over 12.5 µM, the TGI [26] was over 12.5 µM and the TGI [27] was over 12.5 µM. For the same compound, the TGI [28] was over 12.5 µM, the TGI [29] was over 12.5 µM and the TGI [30] was over 12.5 µM. The TGI [31] was over 12.5 µM, the TGI [33] was over 12.5 µM and the TGI [34] was over 12.5 µM. The TGI [35] was over 12.5 µM, the TGI [36] was over 12.5 µM and the TGI [37] was over 12.5 µM. The TGI [38] was over 12.5 µM, the TGI [39] was over 12.5 µM and the TGI [59] was over 12.5 µM. It also gave a TGI [40] of over 12.5 µM, a TGI [41] of over 12.5 µM and a TGI [42] of over 12.5 µM. The TGI [44] was over 12.5 µM, the TGI [45] was over 12.5 µM and the TGI [46] was over 12.5 µM. It also gave a TGI [47] of over 12.5 µM, a TGI [48] of over 12.5 µM and a TGI [50] of over 12.5 µM. For the same compound, the TGI [51] was over 12.5 µM, the TGI [52] was over 12.5 µM and the TGI [53] was over 12.5 µM. For the same compound, the TGI [54] was over 12.5 µM, the TGI [55] was over 12.5 µM and the TGI [56] was over 12.5 µM. For the same compound, the TGI [57] was over 12.5 µM and the TGI [58] was over 12.5 µM.
